Key:
[1] = tested on: PmHS2; experiment: Donor substrate specificity of PmHS2 by HPLC (Example 1); format: biochemical, Pasteurella multocida; conditions: acceptor GlcAα2AA 1 mM, UDP-sugar 1 mM, MnCl2 10 mM, pH 6.5, 37° C.
Method: (§1) pH profile by HPLC. Typical enzymatic assays were performed in a 10 μl reaction mixture containing a buffer (100 mM) with a pH in the range of 4.0-10.0, UDP-GlcNAc (1 mM), GlcAβ2AA (1 mM), MnCl2 (10 mM) and KfiA (9.0 μg) or PmHS2 (0.25 μg). Buffers used were: Na2HPO4/citric acid, pH 4.0; MES, pH 5.0-6.5; TrisHCl, pH 7.0-9.0; and CAPS, pH 10.0. Reactions were allowed to proceed for 30 min at 37° C. and were quenched by adding ice-cold 10% (v/v) acetonitrile to make 100-fold dilutions. The samples were then kept on ice until an aliquot of 8 μl was injected and analyzed by a Shimadzu LC-2010A system equipped with a membrane on-line degasser, a temperature control unit and a fluorescence detector. A reverse phase Premier C18 column (250 9 4.6 mm I.D., 5 μm particle size, Shimadzu) protected with a C18 guard column cartridge was used. The mobile phase was 25% (v/v) acetonitrile. The fluorescent compounds GlcAβ2AA and GlcNAcα1-4GlcAβ2AA were detected by excitation at 315 nm and emission at 400 nm.
(§2) Substrate specificity of KfiA and PmHS2. All reactions were carried out in duplicate at 37° C. in MES (100 mM, pH 6.5) containing an UDP-GlcNAc or its derivatives (1 mM), […] (1 mM), MnCl2 (10 mM) and KfiA ([…] PmHS2 (2.5×10^−2 μg μl^−1). At 30 min, 4 h or 16 h, aliquots of reaction mixture were withdrawn and were quenched by adding ice-cold 10% (v/v) acetonitrile to make 100-fold dilutions. The assays were analyzed by HPLC.

[2] = tested on: KfiA; experiment: Donor substrate specificity of KfiA by HPLC (Example 1); format: biochemical, E. coli; conditions: acceptor GlcAα2AA 1 mM, UDP-sugar 1 mM, MnCl2 10 mM, pH 6.5, 37° C.
Method: as §1, §2

[3] = tested on: PmHS2; experiment: Small-scale PmHS2 donor substrate test by TLC; format: biochemical, Pasteurella multocida; conditions: GlcAβ2AAMe 10 mM, donor 15 mM, MgCl2 10 mM, PmHS2 0.5 mg/mL, pH 7.5, 37° C., 12 hr
Method: Prior to applying the one-pot three-enzyme system shown in FIG. 16 to the preparative-scale synthesis of the disaccharides, UDP-GlcNAc and derivatives F17-1-F17-12 were tested as donor substrates for PmHS2 in small-scale reaction containing Tris-HCl buffer (100 mM, pH 7.5), GlcAβ2AAMe (10 mM), UDP-GlcNAc or a derivative (15 mM), MgCl2 (10 mM), and PmHS2 (0.5 mg/mL). The reactions were carried out at 37° C. for 12 hr and analyzed by thin layer chromatography (TLC).

[4] = target: T1, SpGalK (Streptococcus pneumoniae serotype 4, UniProt Q97NZ6); experiment: Kinase reaction monitored by CE (ATP to ADP), SpGalK; format: biochemical, Streptococcus pneumoniae TIGR4; conditions: monosaccharide 15 mM, ATP 18 mM, 37° C.
T1 construct: made in house
Method: (§3) Capillary electrophoresis (CE) and thin-layer chromatograph (TLC) assays for kinase reactions. […] These conditions were similar to those used for preparative-scale synthesis. After 1 hr, 4 hr, and 24 hr, an aliquot of 8 μL was withdrawn from each reaction mixture, boiled in a water bath for 5 min and stored at −20° C. until being analyzed by capillary electrophoresis (CE) and TLC. For TLC analysis, 0.5 μL of each sample was directly spotted on TLC plates, developed using suitable developing solvents, and stained with anisaldehyde sugar stain. For CE analysis, 1.5 μL of each sample was diluted into 30 μL and subjected to CE analysis as described above for pH profile studies.

[5] = tested on: NahK; experiment: Kinase reaction monitored by CE (ATP to ADP), NahK; format: biochemical, Bifidobacterium infantis; conditions: monosaccharide 15 mM, ATP 18 mM, 37° C.
Method: Capillary electrophoresis (CE) and thin-layer chromatograph (TLC) assays for kinase reactions. Kinase reactions were carried out at 37° C. in a total volume of 30 μL in Tris-HCl buffer (100 mM, pH 8.0) containing monosaccharide (15 mM), ATP (18 mM, 1.2 eq.), MgCl2 (10 mM), and a kinase (6 μg). These conditions were similar to those used for preparative-scale synthesis. After 1 hr, 4 hr, and 24 hr, an aliquot of 8 μL was withdrawn from each reaction mixture, boiled in a water bath for 5 min and stored at −20° C. until being analyzed by capillary electrophoresis (CE) and TLC. For TLC analysis, 0.5 μL of each sample was directly spotted on TLC plates, developed using suitable developing solvents, and stained with anisaldehyde sugar stain. For CE analysis, 1.5 μL of each sample was diluted into 30 μL and subjected to CE analysis as described above for pH profile studies.
General methods for compound purification and characterization. Chemicals were purchased and used without further purification. ^1H NMR and ^13C NMR spectra were recorded on a Varian Mercury 600 NMR spectrometer. High resolution electrospray ionization (ESI) mass spectra were obtained in negative mode using Thermo Electron LTQ-Orbitrap mass spectrometer. Silica gel 60 Å (Sorbent Technologies) was used for flash column chromatography. Thin-layer chromatography (TLC) was performed on silica gel plates 60 GF254 (Sorbent Technologies) using anisaldehyde sugar stain for detection. Gel filtration chromatography was performed with a column (100 cm×2.5 cm) packed with BioGel P-2 Fine resins (Bio-Rad). GlcN3 (T6-9) (Lau K, Thon, V, Yu H, Ding L, Chen Y, Muthana M M, Wong D, Huang R, and Chen X. Chem. Commun. 2010, 46, 6066-6068), ManF (T6-11) (Burkart M D, Zhang Z, Hung S-C, and Wong C-H. J. Am. Chem. Soc. 1997, 119, 11743-11746; Cao H, Li Y, Lau K, Muthana S, Yu H, Cheng J, Chokhawala H A, Sugiarto G, Zhang L, and Chen X. Org. Biomol. Chem. 2009, 7, 5137-5145), GalN3 (T6-4) and ManN3 (T6-14) (Yu H, Yu H, Karpel R, cand Chen X. Bioorg. Med. Chem. 2004, 12, 6427-6435) were previously synthesized using reported methods. NahK_ATCC15697, EcGalK, SpGalK, and PmPpA were overexpressed as described previously.

[6] = target: T2, EcGalK (Escherichia coli, UniProt P0A6T3); experiment: Kinase reaction monitored by CE (ATP to ADP), EcGalK; format: biochemical; conditions: monosaccharide 15 mM, ATP 18 mM, 37° C.
T2 construct: made in house
Method: as §3

[7] = target: T3, AtGlcAK (Arabidopsis thaliana, UniProt Q93ZC9, I297M); experiment: AtGlcAK substrate specificity CE assay; format: biochemical; conditions: High enzyme Conc. (2.1 μg in 20 μL, 60 min, 37° C.)
T3 construct: made in house; host or cells: E. coli BL21 (DE3)
Method: Substrate specificity assays. […] The reactions were quenched and assayed with the same method as those for pH profile. All reactions were performed in duplicates.

[8] = target: NahK_ATCC55813 (Bifidobacterium longum subsp. longum, UniProt E8MF12, D7V/R348H); format: biochemical; set-up: made in house; host or cells: E. coli BL21(DE3); conditions: Glc, Gal, Man, ManNAc and derivatives; enzyme 15, 37° C. for 30 min (Table 3); listed as drawing 47
[9] = target: NahK_ATCC15697 (Bifidobacterium longum, UniProt B7GN78); experiment: Substrate specificity CE assay, NahK_ATCC15697; format: biochemical, Bifidobacterium infantis; conditions: Glc, Gal, Man, ManNAc and derivatives; enzyme 15, 37° C. for 30 min (Table 3); listed as drawing 47
[10] = tested on: T4, MBP-KfiA-His6 (Escherichia coli); experiment: GlcNAcT donor substrate specificity of MBP-KfiA-His6 (Example 12); format: biochemical, E. coli; conditions: acceptor GlcAβ2AA 1 mM, UDP-sugar 1 mM, MnCl2 10 mM, KfiA 2.8 μg μl^−1, 24 h, 37° C.
T4 construct: made in house; host or cells: E. coli BL21(DE3) co-expressing chaperone plasmid pGro7
Method: (§4) PmHS2, KfiA, and related fusion proteins were expressed, purified, and characterized as described in Example 1. Reactions with UDP-sugars were carried out in duplicate at 37° C. in MES (100 mM, pH 6.5) containing UDP-GlcNAc or one of its derivatives (1 mM), GlcAβ2AA (1 mM), MnCl2 (10 mM) and KfiA (2.8 μg μl^−1) or PmHS2 (1.1 μg μl^−1) for 24 h. The reaction mixtures were stopped by adding ice-cold 10% (v/v) acetonitrile to make 100-fold dilutions and the mixtures were analyzed by HPLC as described for the pH profile.
(§5) Substrate specificity of the GlcNAcT activities of MBP-KfiA-his6 and his6-PmHS2. […] The reactions were easily analyzed by high performance liquid chromatography (HPLC) equipped with a fluorescence detector using an excitation wavelength of 315 nm and an emission wavelength of 400 nm to determine the ratio of the fluorescent disaccharide product formed and the fluorescent GlcAβ2AA acceptor.

[11] = tested on: His6-PmHS2; experiment: GlcNAcT donor substrate specificity of His6-PmHS2 (Example 12); format: biochemical, Pasteurella multocida; conditions: acceptor GlcAβ2AA 1 mM, UDP-sugar 1 mM, MnCl2 10 mM, PmHS2 1.1 μg μl^−1, 24 h, 37° C.
Method: as §4, §5

## [N-]=[N+]=NCC(=O)N[C@H]1[C@@H](OP(=O)(O)OP(=O)(O)OC[C@H]2O[C@@H](n3ccc(=O)[nH]c3=O)[C@H](O)[C@@H]2O)O[C@H](CO)[C@@H](O)[C@@H]1O [Compound F17-4, Uridine 5′-diphospho-2-azidoxyacetamido-2-deoxy-α-D-glucopyranoside]
[1]
  donor substrate for PmHS2: can use
[2]
  donor substrate for KfiA: can use
[3]
  donor substrate for PmHS2: tolerable donor substrates

## OCC1OC(O)C(O)[C@@H](O)[C@@H]1O (stereo partly drawn) [Glc, glucose]
[4]; 1 hr
  ATP Conversion: 6.9%
[4]; 4 hr
  ATP Conversion: 13.8%
[4]; 24 hr
  ATP Conversion: 75.5%
[5]; 4 hr
  ATP Conversion: 18.6%
[5]; 24 hr
  ATP Conversion: 82.2%
[6]; 1 hr
  ATP Conversion: 8.2%
[6]; 4 hr
  ATP Conversion: 13.0%
[6]; 24 hr
  ATP Conversion: 66.4%
[7]
  Percentage conversion of ATP: <5%
[8]
  Percentage Conversion: 4.7 ± 0.1%
[9]
  Percentage Conversion: 9.1 ± 0.1%

## O=C[C@H](O)[C@@H](O)[C@H](O)CO [Xyl, xylose]
[7]
  Percentage conversion of ATP: <5%

## CC(=O)N[C@H]1[C@@H](OP(=O)(O)OP(=O)(O)OC[C@H]2O[C@@H](n3ccc(=O)[nH]c3=O)[C@H](O)[C@@H]2O)O[C@H](CN=[N+]=[N-])[C@@H](O)[C@@H]1O [Compound F17-8, Uridine 5′-diphospho-2-acetamido-6-azido-2,6-dideoxy-α-D-glucopyranoside]
[1]
  donor substrate for PmHS2: is a substrate for PmHS2
[3]
  donor substrate for PmHS2: tolerable donor substrates
[10]
  donor substrate for MBP-KfiA-His6: can be used by MBP-KfiA-His6
[11]
  donor substrate for the α1-4GlcNAcT activity of His6-PmHS2: suitable donor substrates for His6-PmHS2

## CC(=O)N[C@H]1[C@@H](OP(=O)(O)OP(=O)(O)OC[C@H]2O[C@@H](n3ccc(=O)[nH]c3=O)[C@H](O)[C@@H]2O)O[C@H](CO)[C@@H](O)[C@@H]1O [Compound F17-1, Uridine 5′-diphospho-2-acetamido-2-Deoxy-α-D-glucopyranoside]
[1]
  donor substrate for PmHS2: best substrate
[2]
  donor substrate for KfiA: best substrate
[3]
  donor substrate for PmHS2: tolerable donor substrates
[10]
  donor substrate for MBP-KfiA-His6: can be used by MBP-KfiA-His6
[11]
  donor substrate for the α1-4GlcNAcT activity of His6-PmHS2: suitable donor substrates for His6-PmHS2

## O=C(NC1C(OP(=O)(O)OP(=O)(O)OCC2OC(n3ccc(=O)[nH]c3=O)C(O)C2O)OC(CO)C(O)C1O)C(F)(F)F [Compound F17-2, Uridine 5′-diphospho-2-deoxy-2-trifluoroacetamido-α-D-glucopyranoside]
[1]
  donor substrate for PmHS2: can use
[2]
  donor substrate for KfiA: can use
[3]
  donor substrate for PmHS2: tolerable donor substrates

## O=C(CO)N[C@H]1[C@@H](OP(=O)(O)OP(=O)(O)OC[C@H]2O[C@@H](n3ccc(=O)[nH]c3=O)[C@H](O)[C@@H]2O)O[C@H](CO)[C@@H](O)[C@@H]1O [Compound F17-3, Uridine 5′-diphospho-2-hydroxyacetamido-2-deoxy-α-D-glucopyranoside]
[1]
  donor substrate for PmHS2: can use
[2]
  donor substrate for KfiA: can use
[3]
  donor substrate for PmHS2: tolerable donor substrates
